{"source": "patent US5061723A", "about": "“Non-teratogenic vitamin A preparation for women of child-bearing age” (Iowa State University Research Foundation, Inc., priority 1989, dated 1991)", "key": {"pregnant rats (fetuses)": {"test_system": "pregnant rats (fetuses)", "test": "Teratogenicity test in pregnant rats (single oral dose on day 8.5 of gestation; fetuses examined day 19-19.5)", "assay_type": "in vivo, rat", "procedure": "All-trans retinoic acid glucuronide was tested for teratogenicity in pregnant rats.\nThe retinoic acid glucuronide dissolved in vegetable oil. Equivalent amount of all-trans retinoic acid was also dissolved in the vegetable oil. Groups of pregnant rats were dosed orally with either retinoid glucuronide or retinoic acid on day 8.5 of gestation. […] The rats were killed on day 19.5 of a 21 day gestational period, and the fetuses were examined for viability, growth, and developmental abnormalities.\nRats that became pregnant during the same night were selected for the study. The rats were divided into 3 groups. Rats in Group 1 received orally 55 mg of the all-trans retinoic acid glucuronide (equivalent to 35 mg of retinoic acid) or a very large dose of 108 mg of the glucuronide in peanut oil. Rats in Group 2 received orally 35 mg of all-trans retinoic acid in peanut oil. Rats in Group 3 received no retinoid and served as control. The rats were then allowed to grow normally and on day 19, they were killed and fetuses were examined."}, "[1]": {"settings": "cited from earlier work"}, "HL-60 cells": {"test_system": "HL-60 cells", "settings": "cited from earlier work; for activity in the HL-60 systems assay: compared with retinoic acid and retinol"}, "Solubility in water": {"test": "Solubility in water", "assay_type": "physicochemical", "settings": "all-trans retinoyl β-glucuronide"}, "β-glucuronidase": {"test_system": "β-glucuronidase", "test": "Hydrolysis by β-glucuronidase (from E. coli)", "assay_type": "biochemical", "settings": "phosphate buffer pH 6.8, 0.5-2 hrs", "procedure": "An analytically pure sample of retinoyl β-glucuronide was obtained by HPLC of the above preparation on a Whatman ODS-3 column (M9, 50 cm) using methanol/water (7:3) containing 10 mM ammonium acetate at a flow rate of 3 ml/min. Retinoyl β-glucuronide (tR =49.7 min) separated from traces of isomers or anomers (tR =46.4 min). The eluate carrying retinoyl β-glucuronide was diluted with water and made just acidic with 0.1N HCl. The product was extracted with ethyl acetate. The extract was washed with water, dried over anhydrous sodium sulfate, and then evaporated to dryness. The residue was dissolved in a small volume of diethyl ether and all-trans retinoyl β-glucuronide was precipitated with hexane. The solid was separated and dried. All-trans retinoyl β-glucuronide:m.p. 142°-143° C. (darkens at 125° C.); UVmax 360 nm (E1cm =1065) in methanol and 365 nm in water. The ^1 H-NMR, IR and Mass spectra and C, H analysis results were consistent with the structure."}, "human fetus": {"test_system": "human fetus", "settings": "oral, 0.5 to 2 mg/kg body weight per 24 hours; cited from earlier work"}}, "data": [{"smiles": "CC1=C(/C=C/C(C)=C/C=C/C(C)=C/C(=O)O)C(C)(C)CCC1", "note": "[Retinoic acid, all-trans retinoic acid, reference compound]", "values": [{"measurement": "outcome of pregnancy / embryos", "setting": "pregnant rats (fetuses); same large doses of retinoic acid, oral", "value": "did not carry the pregnancy to term--all the embryos died and were being resorbed"}, {"measurement": "water solubility", "setting": "[1]", "value": "not water-soluble"}]}, {"smiles": "CC1=C(/C=C/C(C)=C/C=C/C(C)=C/C(=O)O[C@@H]2O[C@H](C(=O)O)[C@@H](O)[C@H](O)[C@H]2O)C(C)(C)CCC1", "note": "[Retinoyl β-glucuronide, All-trans retinoyl β-glucuronide]", "values": [{"measurement": "activity in the HL-60 systems assay", "setting": "HL-60 cells", "value": "activity similar to retinoic acid and retinol"}, {"measurement": "cytotoxicity to HL-60 cells, less than all-trans retinoic acid", "setting": "HL-60 cells; in vitro, vs all-trans retinoic acid, Gallup et al. and Zile et al.", "value": 50, "unit": "%"}, {"measurement": "solubility in water", "setting": "Solubility in water", "value": "soluble in water"}, {"measurement": "condition of pups", "setting": "pregnant rats (fetuses); rat, in vivo, po", "value": "All the pups were normal and live"}, {"measurement": "teratogenicity, observation in words", "setting": "pregnant rats (fetuses); rat, in vivo, po", "value": "did not show any sign of teratogenicity"}, {"measurement": "product of incubation with β-glucuronidase", "setting": "β-glucuronidase", "value": "generated retinoic acid"}]}, {"smiles": "CC1=C(/C=C/C(C)=C/C=C/C(C)=C\\C(=O)O)C(C)(C)CCC1", "note": "[isotretinoin, 13-cis form of retinoic acid]", "values": [{"measurement": "teratogenicity at typical clinical doses", "setting": "human fetus", "value": "highly teratogenic"}]}, {"smiles": "CC1=C(/C=C/C(C)=C/C=C/C(C)=C/COC2O[C@H](C(=O)O)[C@@H](O)[C@H](O)[C@H]2O)C(C)(C)CCC1", "note": "(some centres unmarked) [retinol glucuronide, reference compound]", "values": [{"measurement": "activity in the HL-60 systems assay", "setting": "HL-60 cells", "value": "activity similar to retinoic acid and retinol"}]}, {"smiles": "CC1=C(/C=C/C(C)=C/C=C/C(C)=C/CO)C(C)(C)CCC1", "note": "[retinol]", "values": [{"measurement": "water solubility", "setting": "[1]", "value": "water-insoluble"}]}]}
